Source: patent US10441597B2, “Ciclesonide for the treatment of airway disease in horses” (Boehringer Ingelheim Vetmedica GmbH, priority 2012, dated 2019)
“Also recorded” adds a separate entry of the source.

Legend:
RAO horses [1] = assay: Moldy hay challenge study in RAO horses: lung function variables (transpulmonary pressure, lung resistance, lung elastance); format: in vivo, horse; settings: for Difference in lung function variables versus dexamethasone group: after 7 or 14 days; for Efficacy relative to dexamethasone measured in lung function variables and clinical score: moldy hay challenge model, RESPIMAT inhaler with Equine Inhaler device, examples 1 and 3
Source text: (§1) The commercially available […]® is used in the study.

RAO horses [2] = assay: Moldy hay challenge study in RAO horses: clinical score (breathing effort score, weighted clinical score); format: in vivo, horse
Source text: as §1

[3] = system: segmented neutrophils and lymphocytes; assay: Moldy hay challenge study in RAO horses: segmented neutrophil and lymphocyte counts; format: in vivo, horse; settings: for Lymphocytes / Segmented neutrophils: nozzle B, n=7 mean
Procedure: as §1
The segmented neutrophil counts and the lymphocyte counts are determined in the studies above: ciclesonide treatment versus dexamethasone treatment.

IAD horse = assay: Impulse oscillometry lung function in one IAD horse (4th ciclesonide study); format: in vivo; settings: 2700 μg ciclesonide twice daily for 14 days
Source text: Ciclesonide is investigated in a baseline controlled, blinded study examining one (1) IAD horse. […] Lung function variables using the impulse oscillometry system (respiratory resistance (Rrs) and reactance (Xrs) are examined during the study.

cortisol levels = settings: humans; after aerosol administration/inhalation; cited from earlier work
serum cortisol = assay: Moldy hay challenge study in RAO horses: serum cortisol; settings: for Serum cortisol levels: any measured time point
[4] = Concentration of ciclesonide and metabolite in equine plasma (HPLC-MS/MS); settings: for Ciclesonide concentration in equine plasma: 2nd ciclesonide study, n=8 mean
[5] = 1st ciclesonide study, ciclesonide 450/900/1800 μg/horse twice daily
[6] = 2nd ciclesonide study, ciclesonide 1687.5 B/2700 A/2700 B μg twice daily
[7] = 3rd ciclesonide study, ciclesonide groups
[8] = D 0, 2700 μg ciclesonide/horse twice daily inhaled 14 days, 3rd ciclesonide study
[9] = D 0, 3712.5 μg ciclesonide/horse once daily in the evening inhaled 14 days, 3rd ciclesonide study
[10] = D 0, 3712.5 μg ciclesonide/horse once daily in the morning inhaled 14 days, 3rd ciclesonide study
[11] = D 14, 2700 μg ciclesonide/horse twice daily inhaled 14 days, 3rd ciclesonide study
[12] = D 14, 3712.5 μg ciclesonide/horse once daily in the evening inhaled 14 days, 3rd ciclesonide study
[13] = D 14, 3712.5 μg ciclesonide/horse once daily in the morning inhaled 14 days, 3rd ciclesonide study
[14] = D 21, 2700 μg ciclesonide/horse twice daily inhaled 14 days, 3rd ciclesonide study
[15] = D 21, 3712.5 μg ciclesonide/horse once daily in the evening inhaled 14 days, 3rd ciclesonide study
[16] = D 21, 3712.5 μg ciclesonide/horse once daily in the morning inhaled 14 days, 3rd ciclesonide study
[17] = frequencies 0.2 to 2 Hz, in contrast to pretreatment values

## CCCC1O[C@@H]2C[C@H]3[C@@H]4CCC5=CC(=O)C=C[C@]5(C)[C@H]4[C@@H](O)C[C@]3(C)[C@]2(C(=O)CO)O1 (stereo partly shown) [budesonide]
RAO horses [1]; Budesonide study, budesonide 1800 μg/horse ex RESPIMAT twice daily inhaled, after 14 days, p≤0.0001
  All lung function variables compared to pretreatment values: significantly reduced
RAO horses [1]; Budesonide study, budesonide 1800 μg/horse twice daily
  Difference in lung function variables versus dexamethasone group: no significant difference
RAO horses [1]
  Efficacy relative to dexamethasone measured in lung function variables and clinical score: comparable efficacy
RAO horses [2]; Budesonide study, all three budesonide groups (450/900/1800 μg/horse twice daily), after 7 and 14 days, p=0.002 to p<0.0001
  Clinical score compared to pretreatment values: significantly reduced
RAO horses [2]; Budesonide study, budesonide 900 and 1800 μg/horse twice daily, after 7 and 14 days
  Difference in clinical score versus dexamethasone group: no significant difference

## CC(C)C(=O)OCC(=O)[C@@]12O[C@H](C3CCCCC3)O[C@@H]1C[C@H]1[C@@H]3CCC4=CC(=O)C=C[C@]4(C)[C@H]3[C@@H](O)C[C@@]12C [ciclesonide, (11β,16α)-16,17-[[(R)-Cyclohexylmethylene]bis(oxy)]-11-hydroxy-21-(2-methyl-1-oxopropoxy)pregna-1,4-diene-3,20-dione]
RAO horses [1]; 1st ciclesonide study, ciclesonide 1800 μg/horse twice daily inhaled (only the highest dose), after 14 days, p=0.0005 and p=0.0004
  ΔPL and EL compared to pretreatment values: statistically significant reduction
RAO horses [1]; 1st ciclesonide study, ciclesonide 1800 μg/horse twice daily, after 14 days
  Difference in ΔPL and EL versus dexamethasone group: no significant difference
RAO horses [1]; 2nd ciclesonide study, all ciclesonide groups (1687.5 μg nozzle B/2700 μg nozzle A/2700 μg nozzle B twice daily), after 14 days, p=0.0009 to p<0.0001
  All lung function variables compared to pretreatment values: significantly reduced
RAO horses [1]; 2nd ciclesonide study, all ciclesonide groups
  Difference in lung function variables versus dexamethasone group: no significant difference
RAO horses [1]; 3rd ciclesonide study, all ciclesonide groups, after 14 days, p<0.0001 (2700 μg, 3712.5 μg evening), p=0.0005 ΔPL / p=0.0003 RL (3712.5 μg morning)
  Difference in lung function variables (ΔPL, RL) versus placebo group: significant difference
RAO horses [1]; 3rd ciclesonide study, ciclesonide 2700 μg twice daily, after 7 days, p<0.0001
  Change in ΔPL compared to pretreatment values: significantly reduced
RAO horses [1]; 3rd ciclesonide study, ciclesonide 2700 μg twice daily, after 14 days, p<0.0001
  ΔPL and RL compared to pretreatment values: significantly reduced
RAO horses [1]; 3rd ciclesonide study, ciclesonide 2700 μg, after 7 days, p<0.0001
  Reduction of ΔPL and RL compared to pretreatment values: statistically significant
RAO horses [1]; 3rd ciclesonide study, ciclesonide 2700 μg, after 7 days, p=0.0002
  Reduction of RL compared to pretreatment values: statistically significant
RAO horses [1]; 3rd ciclesonide study, ciclesonide 3712.5 μg once daily in the evening, after 7 days, p=0.001
  Change in ΔPL compared to pretreatment values: significantly reduced
RAO horses [1]; 3rd ciclesonide study, ciclesonide 3712.5n (once daily in the evening), after 14 days, p=0.0001
  RL compared to pretreatment values: significantly reduced
RAO horses [1]; 3rd ciclesonide study, ciclesonide treatment groups, after 14 days
  Lung function variables compared to pretreatment values and to placebo group: significantly reduced
RAO horses [1]
  Efficacy relative to dexamethasone measured in lung function variables and clinical score: comparable efficacy
RAO horses [2]; 1st ciclesonide study, ciclesonide 450/900/1800 μg/horse twice daily, any measured time point
  Breathing effort score: no significant changes
RAO horses [2]; 2nd ciclesonide study, all three ciclesonide groups, after 14 days, p=0.0001 to p<0.0001
  Weighted clinical score compared to pretreatment values: significantly reduced
RAO horses [2]; 2nd ciclesonide study, ciclesonide treatment groups, after 14 days
  Difference in weighted clinical score versus dexamethasone group: no significant difference
RAO horses [2]; 3rd ciclesonide study, ciclesonide 2700 μg twice daily, after 7 and 14 days, p=0.0001 (7 days), p=0.0003 (14 days)
  Weighted clinical score compared to pretreatment values: significantly reduced
RAO horses [2]; 3rd ciclesonide study, ciclesonide treatment groups, after 14 days, p=0.0002 (2700 μg, 3712.5 μg evening), p=0.0006 (3712.5 μg morning)
  Difference in weighted clinical score versus placebo group: significant difference
[3]; [5]
  Counts of lymphocytes after administration: no change
  Counts of segmented neutrophils after administration: no or minor increase
[3]; [6]
  Counts of lymphocytes after administration: no change
  Counts of segmented neutrophils after administration: no or minor increase
[3]; [7]
  Counts of lymphocytes after administration: no change
  Counts of segmented neutrophils after administration: no or minor increase
[3]; [8]
  Lymphocytes: 2.55e+09 L⁻¹
  Segmented neutrophils: 3.97e+09 L⁻¹
[3]; [9]
  Lymphocytes: 2.55e+09 L⁻¹
  Segmented neutrophils: 3.73e+09 L⁻¹
[3]; [10]
  Lymphocytes: 2.21e+09 L⁻¹
  Segmented neutrophils: 4.37e+09 L⁻¹
[3]; [11]
  Lymphocytes: 2.54e+09 L⁻¹
  Segmented neutrophils: 4.57e+09 L⁻¹
[3]; [12]
  Lymphocytes: 2.43e+09 L⁻¹
  Segmented neutrophils: 4.37e+09 L⁻¹
[3]; [13]
  Lymphocytes: 2.48e+09 L⁻¹
  Segmented neutrophils: 4.45e+09 L⁻¹
[3]; [14]
  Lymphocytes: 2.49e+09 L⁻¹
  Segmented neutrophils: 3.47e+09 L⁻¹
[3]; [15]
  Lymphocytes: 2.48e+09 L⁻¹
  Segmented neutrophils: 3.41e+09 L⁻¹
[3]; [16]
  Lymphocytes: 2.66e+09 L⁻¹
  Segmented neutrophils: 3.75e+09 L⁻¹
[3]; ciclesonide, treatment for two weeks with different dose levels, 1st and 2nd ciclesonide studies (Table 2)
  Alteration in the immune system measured by neutrophilia and lymphopenia: no alteration; also recorded: not observed
IAD horse; [17]
  Mean respiratory reactance in inspiration versus expiration: not different
  Mean respiratory resistance in inspiration versus expiration: not different
IAD horse; frequencies 0.2 to 20 Hz, mean of three measurements
  Mean respiratory resistance (Rrs) compared to pretreatment values: decreased
IAD horse; frequencies 5 to 10 Hz, mean of three measurements
  Mean respiratory reactance (Xrs) compared to pretreatment values: decreased
Cortisol levels
  Measured cortisol levels: no or clinically not relevant cortisol suppression
Serum cortisol; 1st ciclesonide study, any ciclesonide group (450/900/1800 μg/horse twice daily)
  Serum cortisol levels: no significant reduction
Serum cortisol; 2nd ciclesonide study, any ciclesonide group (1687.5 B/2700 A/2700 B μg twice daily)
  Serum cortisol levels: no significant reduction
Serum cortisol; 3rd ciclesonide study, any ciclesonide group (2700 μg twice daily/3712.5 μg morning/3712.5 μg evening)
  Serum cortisol levels: no significant reduction
Serum cortisol; after administration of the highest ciclesonide dose, example 3
  Cortisol level compared to values prior to treatment: does not change significantly
Serum cortisol; ciclesonide, treatment for two weeks with different dose levels, Examples 2-3
  Serum cortisol level of horses: no decrease
[4]; day 1, 0 min, ciclesonide 2700 μg nozzle B twice daily inhaled
  Ciclesonide concentration in equine plasma: <0.500 nmol/L
[4]; day 1, 1 h, ciclesonide 2700 μg nozzle B twice daily inhaled
  Ciclesonide concentration in equine plasma: <0.500 nmol/L
[4]; day 1, 2 h, ciclesonide 1687.5 μg nozzle B twice daily inhaled
  Ciclesonide concentration in equine plasma: <0.500 nmol/L
[4]; day 1, 2 h, ciclesonide 2700 μg nozzle B twice daily inhaled
  Ciclesonide concentration in equine plasma: <0.500 nmol/L
[4]; day 1, 4 h, ciclesonide 1687.5 μg nozzle B twice daily inhaled
  Ciclesonide concentration in equine plasma: <0.500 nmol/L
[4]; day 1, 4 h, ciclesonide 2700 μg nozzle B twice daily inhaled
  Ciclesonide concentration in equine plasma: <0.500 nmol/L
[4]; day 11, 0 min, ciclesonide 2700 μg nozzle A twice daily inhaled
  Ciclesonide concentration in equine plasma: <0.500 nmol/L
[4]; day 11, 0 min, ciclesonide 2700 μg nozzle B twice daily inhaled
  Ciclesonide concentration in equine plasma: <0.500 nmol/L
[4]; day 11, 1 h, ciclesonide 2700 μg nozzle A twice daily inhaled
  Ciclesonide concentration in equine plasma: <0.500 nmol/L
[4]; day 11, 1 h, ciclesonide 2700 μg nozzle B twice daily inhaled
  Ciclesonide concentration in equine plasma: <0.500 nmol/L
[4]; day 11, 2 h, ciclesonide 2700 μg nozzle A twice daily inhaled
  Ciclesonide concentration in equine plasma: <0.500 nmol/L
[4]; day 11, 2 h, ciclesonide 2700 μg nozzle B twice daily inhaled
  Ciclesonide concentration in equine plasma: <0.500 nmol/L
[4]; day 11, 4 h, ciclesonide 2700 μg nozzle A twice daily inhaled
  Ciclesonide concentration in equine plasma: <0.500 nmol/L
[4]; day 11, 4 h, ciclesonide 2700 μg nozzle B twice daily inhaled
  Ciclesonide concentration in equine plasma: <0.500 nmol/L
[4]; in horses, example 5
  Conversion of ciclesonide into the effective molecule C21-C21-desisobutyrylciclesonide: can be converted
